Measurements reported in patent US10980889B1 (Revolution Medicines, Inc., priority 2018, dated 2021).
Read-outs that look alike come from different tables or passages of the source.

Tests used:
Conditions in all cases: two to four hours at 37° C.; for IC50: Homo sapiens, 4 h
P-P70S6K (T389) = test: Cell based AlphaLISA assay, inhibition of P-P70S6K (T389) in MDA-MB-468 cells (mTORC1 substrate)
Summary of the method: (§1)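 In MDA-MB-468 cells, phosphorylation of 4EBP1 (Thr37/46), P70S6K (Thr389) and AKT (Ser473) was measured after incubation with inhibitor by AlphaLISA SureFire Ultra on cell lysates, in duplicate. IC50 values came from control-normalized concentration-response regression.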

P-4E-BP1 (T37/46) = test: Cell based AlphaLISA assay, inhibition of P-4E-BP1 (T37/46) in MDA-MB-468 cells (mTORC1 substrate)
Summary of the method: as §1

P-Akt (S473) = test: Cell based AlphaLISA assay, inhibition of P-Akt (S473) in MDA-MB-468 cells (mTORC2 substrate)
Summary of the method: as §1

[1] = AlphaLisa, read-out: pIC50 for Inhibition of mTORC1 and mTORC2 Substrate Phosphorylation p-P70S6K-(T389) (converted)
[2] = AlphaLisa, read-out: pIC50 for Inhibition of mTORC1 and mTORC2 Substrate Phosphorylation P-4E-BP1-(T37/46) (converted)
[3] = AlphaLisa, read-out: pIC50 for Inhibition of mTORC1 and mTORC2 Substrate Phosphorylation p-AKT1/2/3-(S473) (converted)

SMILES | IC50 (P-P70S6K (T389); [1]) | IC50 (P-4E-BP1 (T37/46); [2]) | IC50 (P-Akt (S473); [3]) | further results
CO[C@H]1C[C@@H]2CC[C@@H](C)[C@@](O)(O2)C(=O)C(=O)N2CCCC[C@H]2C(=O)O[C@H]([C@H](C)C[C@@H]2CC[C@@H](OC(=O)N3CCc4nc(N5CCN(c6ncc(C(=O)N7CCN(c8ncc(C(=O)N9CCc%10cc(Cn%11nc(-c%12cnc%13oc(N)nc%13c%12)c%12c(N)ncnc%12%11)ccc%10C9)cn8)CC7)cn6)CC5)ncc4C3)[C@H](OC)C2)CC(=O)[C@H](C)/C=C(\C)[C@@H](O)[C@@H](OC)C(=O)[C@H](C)C[C@H](C)/C=C/C=C/C=C/1C [Example 62] |  |  |  | pIC50 for Inhibition of mTORC1 and mTORC2 Substrate Phosphorylation p-P70S6K-(T389) (P-P70S6K (T389); AlphaLisa): ++ (9 > pIC50 ≥ 8); pIC50 for Inhibition of mTORC1 and mTORC2 Substrate Phosphorylation P-4E-BP1-(T37/46) (P-4E-BP1 (T37/46); AlphaLisa): − (<6); pIC50 for Inhibition of mTORC1 and mTORC2 Substrate Phosphorylation p-AKT1/2/3-(S473) (P-Akt (S473); AlphaLisa): − (<6)
CO[C@H]1C[C@@H]2CC[C@@H](C)[C@@](O)(O2)C(=O)C(=O)N2CCCCC2C(=O)O[C@H]([C@H](C)C[C@@H]2CC[C@@H](OC(=O)NCc3cnc(N4CCN(C(=O)CN(C)CC(=O)NCCOCCOCCC(=O)NCCCCn5nc(-c6ccc7oc(N)nc7c6)c6c(N)ncnc65)CC4)nc3)[C@H](OC)C2)C[C@@H](OC)[C@H](C)/C=C(\C)[C@@H](O)[C@@H](OC)C(=O)[C@H](C)C[C@H](C)/C=C/C=C/C=C/1C (stereo partly drawn) [Example 92] | < 1 nM | < 3.16 nM | 3.16 to 31.6 nM | 
CO[C@H]1C[C@@H]2CC[C@@H](C)[C@@](O)(O2)C(=O)C(=O)N2CCCC[C@H]2C(=O)O[C@H]([C@H](C)C[C@@H]2CC[C@@H](OC(=O)NCCOCCOCCOCCOCCOCCOCCOCCOCC(=O)N3CCc4cc(Cn5nc(-c6ccc7oc(N)nc7c6)c6c(N)ncnc65)ccc4C3)[C@H](OC)C2)C[C@@H](O)[C@H](C)/C=C(\C)[C@@H](O)[C@@H](OC)C(=O)[C@H](C)C[C@H](C)/C=C/C=C/C=C/1C [Example 72] |  |  |  | pIC50 for Inhibition of mTORC1 and mTORC2 Substrate Phosphorylation p-P70S6K-(T389) (P-P70S6K (T389); AlphaLisa): +++ (≥9); pIC50 for Inhibition of mTORC1 and mTORC2 Substrate Phosphorylation P-4E-BP1-(T37/46) (P-4E-BP1 (T37/46); AlphaLisa): +++ (≥8.5); pIC50 for Inhibition of mTORC1 and mTORC2 Substrate Phosphorylation p-AKT1/2/3-(S473) (P-Akt (S473); AlphaLisa): +++ (≥8.5)
CO[C@H]1C[C@@H]2CC[C@@H](C)[C@@](O)(O2)C(=O)C(=O)N2CCCC[C@H]2C(=O)O[C@H]([C@H](C)C[C@@H]2CC[C@@H](OC(=O)NCc3cnc(N4CCN(C(=O)CCOCCN5CCN(c6ncc(C(=O)N7CCc8cc(Cn9nc(-c%10ccc%11oc(N)nc%11c%10)c%10c(N)ncnc%109)ccc8C7)cn6)CC5)CC4)nc3)[C@H](OC)C2)C[C@H](N=[N+]=[N-])[C@H](C)/C=C(\C)[C@@H](O)[C@@H](OC)C(=O)[C@H](C)C[C@H](C)/C=C/C=C/C=C/1C [Example 137] | < 1 nM | < 3.16 nM | 3.16 to 31.6 nM | 
CC(C)n1nc(-c2ccc3oc(N)nc3c2)c2c(N)ncnc21 [MLN-128, reference compound] |  |  |  | IC50 (P-P70S6K (T389); AlphaLisa SureFire Ultra, read-out: IC50 for Inhibition of mTORC1 and mTORC2 Substrate Phosphorylation (nM) p-P7056K-(T389)): 1.4 nM; IC50 (P-4E-BP1 (T37/46); AlphaLisa SureFire Ultra, read-out: IC50 for Inhibition of mTORC1 and mTORC2 Substrate Phosphorylation (nM) p-4E-BP1-(T37/46)): 16 nM; IC50 (P-Akt (S473); AlphaLisa SureFire Ultra, read-out: IC50 for Inhibition of mTORC1 and mTORC2 Substrate Phosphorylation (nM) p-AKT1/2/3-(5473)): 3.7 nM
CO[C@H]1C[C@@H]2CC[C@@H](C)[C@@](O)(O2)C(=O)C(=O)N2CCCC[C@H]2C(=O)O[C@H]([C@H](C)C[C@@H]2CC[C@@H](OC(=O)NCc3cnc(N4CCN(C(=O)CCOCCN5CCN(C(=O)CCC(=O)NCCCCn6nc(-c7cnc8[nH]ccc8c7)c7c(N)ncnc76)CC5)CC4)nc3)[C@H](OC)C2)CC(=O)[C@H](C)/C=C(\C)[C@@H](O)[C@@H](OC)C(=O)[C@H](C)C[C@H](C)/C=C/C=C/C=C/1C [Example 116] | < 1 nM | < 3.16 nM | > 1000 nM | 
CO[C@H]1C[C@@H]2CC[C@@H](C)[C@@](O)(O2)C(=O)C(=O)N2CCCC[C@H]2C(=O)O[C@H]([C@H](C)C[C@@H]2CC[C@@H](OC(=O)NCc3cnc(N4CCN(C(=O)CN(C)CC(=O)NCCOCCOCCC(=O)N5CCc6cc(Cn7nc(-c8ccc9oc(N)nc9c8)c8c(N)ncnc87)ccc6C5)CC4)nc3)[C@H](OC)C2)CC(=O)[C@H](C)/C=C(\C)[C@@H](O)[C@@H](OC)C(=O)[C@H](C)C[C@H](C)/C=C/C=C/C=C/1C [Example 87] | < 1 nM | < 3.16 nM | 3.16 to 31.6 nM | 
CO[C@H]1C[C@@H]2CC[C@@H](C)[C@@](O)(O2)C(=O)C(=O)N2CCCC[C@H]2C(=O)O[C@H]([C@H](C)C[C@@H]2CC[C@@H](OC(=O)NCc3cnc(N4CCN(C(=O)CCOCCN5CCN(c6ncc(C(=O)N7CCc8cc(Cn9nc(-c%10ccc%11oc(N)nc%11c%10)c%10c(N)ncnc%109)ccc8C7)cn6)CC5)CC4)nc3)[C@H](OC)C2)C[C@@H](O)[C@H](C)/C=C(\C)[C@@H](O)[C@@H](OC)C(=O)[C@H](C)C[C@H](C)/C=C/C=C/C=C/1C [Example 113] | < 1 nM | < 3.16 nM | 3.16 to 31.6 nM | 
CO[C@H]1C[C@@H]2CC[C@@H](C)[C@@](O)(O2)C(=O)C(=O)N2CCCC[C@H]2C(=O)O[C@H]([C@H](C)C[C@@H]2CC[C@@H](OC(=O)NCc3cnc(N4CCN(C(=O)CN(C)CC(=O)NCCOCCOCCC(=O)N5CCc6cc(Cn7nc(-c8ccc9oc(N)nc9c8)c8c(N)ncnc87)ccc6C5)CC4)nc3)[C@H](OC)C2)C[C@@H](OC)[C@H](C)/C=C(\C)[C@@H](O)[C@@H](OC)C(=O)[C@H](C)C[C@H](C)/C=C/C=C/C=C/1C [Example 103] |  |  |  | pIC50 for Inhibition of mTORC1 and mTORC2 Substrate Phosphorylation p-P70S6K-(T389) (P-P70S6K (T389); AlphaLisa): +++ (≥9); pIC50 for Inhibition of mTORC1 and mTORC2 Substrate Phosphorylation P-4E-BP1-(T37/46) (P-4E-BP1 (T37/46); AlphaLisa): − (<6); pIC50 for Inhibition of mTORC1 and mTORC2 Substrate Phosphorylation p-AKT1/2/3-(S473) (P-Akt (S473); AlphaLisa): − (<6)
CO[C@H]1C[C@@H]2CC[C@@H](C)[C@@](O)(O2)C(=O)C(=O)N2CCCC[C@H]2C(=O)O[C@H]([C@H](C)C[C@@H]2CC[C@@H](OC(=O)NCc3cnc(N4CCN(C(=O)CCOCCN5CCN(c6ncc(C(=O)NCCS(=O)(=O)c7ccc(C(=O)N8CCOc9ccc(-c%10ccc(N)nc%10)cc9C8)c(C)c7)cn6)CC5)CC4)nc3)[C@H](OC)C2)CC(=O)[C@H](C)/C=C(\C)[C@@H](O)[C@@H](OC)C(=O)[C@H](C)C[C@H](C)/C=C/C=C/C=C/1C [Example 124] | < 1 nM | < 3.16 nM | 3.16 to 31.6 nM | 
CO[C@H]1C[C@@H]2CC[C@@H](C)[C@@](O)(O2)C(=O)C(=O)N2CCCC[C@H]2C(=O)O[C@H]([C@H](C)C[C@@H]2CC[C@@H](OC(=O)NC3CCN(CC(=O)NCCOCCOCCOCCOCCOCCOCCC(=O)N4CCc5cc(Cn6nc(-c7ccc8oc(N)nc8c7)c7c(N)ncnc76)ccc5C4)CC3)[C@H](OC)C2)C[C@@H](O)[C@H](C)/C=C(\C)[C@@H](O)[C@@H](OC)C(=O)[C@H](C)C[C@H](C)/C=C/C=C/C=C/1C [Example 98] | < 1 nM | < 3.16 nM | 3.16 to 31.6 nM | 
CO[C@H]1C[C@@H]2CC[C@@H](C)[C@@](O)(O2)C(=O)C(=O)N2CCCC[C@H]2C(=O)O[C@H]([C@H](C)C[C@@H]2CC[C@@H](OC(=O)NCc3cnc(N4CCN(CCOCCN5CCN(c6ncc(C(=O)N7CCc8cc(Cn9nc(-c%10ccc%11oc(N)nc%11c%10)c%10c(N)ncnc%109)ccc8C7)cn6)CC5)CC4)nc3)[C@H](OC)C2)C[C@@H](OC)[C@H](C)/C=C(\C)[C@@H](O)[C@@H](OC)C(=O)[C@H](C)C[C@H](C)/C=C/C=C/C=C/1C [Example 128] | < 1 nM | 3.16 to 31.6 nM | 31.6 to 1000 nM | 
CO[C@H]1C[C@@H]2CC[C@@H](C)[C@@](O)(O2)C(=O)C(=O)N2CCCC[C@H]2C(=O)O[C@H]([C@H](C)C[C@@H]2CC[C@@H](OC(=O)NCCOCCOCCOCCOCCOCCOCCOCCOCCC(=O)NCc3ccc(Cn4nc(-c5ccc6oc(N)nc6c5)c5c(N)ncnc54)cc3)[C@H](OC)C2)C[C@H](N=[N+]=[N-])[C@H](C)/C=C(\C)[C@@H](O)[C@@H](OC)C(=O)[C@H](C)C[C@H](C)/C=C/C=C/C=C/1C [Example 38] | < 1 nM | > 1000 nM | > 1000 nM | 
CO[C@H]1C[C@@H]2CC[C@@H](C)[C@@](O)(O2)C(=O)C(=O)N2CCCC[C@H]2C(=O)O[C@H]([C@H](C)C[C@@H]2CC[C@@H](OC(=O)NCc3cnc(N4CCN(c5ncc(C(=O)NCCOCCOCCOCCOCCC(=O)N6CCc7cc(Cn8nc(-c9ccc%10oc(N)nc%10c9)c9c(N)ncnc98)ccc7C6)c(N)n5)CC4)nc3)[C@H](OC)C2)C[C@@H](OC)[C@H](C)/C=C(\C)[C@@H](O)[C@@H](OC)C(=O)[C@H](C)C[C@H](C)/C=C/C=C/C=C/1C [Example 94] | < 1 nM | < 3.16 nM | < 3.16 nM | 
CO[C@H]1C[C@@H]2CC[C@@H](C)[C@@](O)(O2)C(=O)C(=O)N2CCCC[C@H]2C(=O)O[C@H]([C@H](C)C[C@@H]2CC[C@@H](OC(=O)NCCOCCOCCOCCOCCOCCOCCOCCOCCC(=O)NCc3ccc(Cn4nc(-c5ccc6oc(N)nc6c5)c5c(N)ncnc54)cc3)[C@H](OC)C2)C[C@@H](OC)[C@H](C)/C=C(\C)[C@@H](O)[C@@H](OC)C(=O)[C@H](C)C[C@H](C)/C=C/C=C/C=C/1C [Example 37] | < 1 nM | < 3.16 nM | > 1000 nM | 
